Columns and labels:
Assay in all cases: initial rates of NPβglc hydrolysis at […] nm, Lineweaver-Burk replots
Format in all cases: biochemical
[1] = molecular target: T1, Sfβgly (Spodoptera frugiperda, UniProt O61594, N249A)
T1 construct: only point mutants assayed here

[2] = molecular target: T2, Sfβgly (Spodoptera frugiperda, UniProt O61594, F251A)
T2 construct: only point mutants assayed here

[3] = molecular target: T3, Sfβgly (Spodoptera frugiperda, UniProt O61594, N249Q)
T3 construct: only point mutants assayed here
T3 sequence (O61594 17-509 limits assumed, stated change not applied): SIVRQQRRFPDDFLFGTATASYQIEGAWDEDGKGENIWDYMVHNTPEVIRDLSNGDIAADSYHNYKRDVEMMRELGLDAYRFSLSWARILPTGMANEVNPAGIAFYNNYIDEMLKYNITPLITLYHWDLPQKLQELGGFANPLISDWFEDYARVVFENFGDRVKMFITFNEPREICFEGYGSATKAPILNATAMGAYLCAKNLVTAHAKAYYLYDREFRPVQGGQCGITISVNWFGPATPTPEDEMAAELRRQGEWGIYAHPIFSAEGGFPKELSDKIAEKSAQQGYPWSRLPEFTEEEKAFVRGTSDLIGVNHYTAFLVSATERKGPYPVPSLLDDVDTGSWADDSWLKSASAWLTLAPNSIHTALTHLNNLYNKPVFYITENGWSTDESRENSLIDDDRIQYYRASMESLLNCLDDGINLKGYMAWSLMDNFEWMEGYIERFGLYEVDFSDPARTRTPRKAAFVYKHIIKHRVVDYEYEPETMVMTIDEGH

[4] = molecular target: T4, Sfβgly (Spodoptera frugiperda, UniProt O61594, S247Y)
T4 construct: only point mutants assayed here
T4 sequence (O61594 17-509 limits assumed, stated change not applied): as above

T1 sequence (O61594 17-509 limits assumed, stated change not applied): as above
T2 sequence (O61594 17-509 limits assumed, stated change not applied): as above

Compound	Ki [1]	Ki [2]	Ki [3]	Ki [4]
NC(CO)(CO)CO [Tris, 2‐amino‐2‐(hydroxymethyl)‐1,3‐propanediol]	0.6 mM	10 mM	32 mM	71 mM
c1c[nH]cn1 [imidazole]	18 mM	12 mM	39 mM	35 mM
